# Data taken from ChEMBL document CHEMBL3421536, “Identification of 4-(4-nitro-2-phenethoxyphenyl)pyridine as a promising new lead for discovering inhibitors of both human and rat 11β-Hydroxylase” (Eur J Med Chem, 2015).
# How the values were obtained:
# [1] = target: T1, Cytochrome P450 11B1, mitochondrial (Homo sapiens, UniProt P15538); test: Inhibition of human CYP11B1 expressed in hamster fibroblast using 100 nM [3H]-11-deoxycorticosterone as substrate after 25 mins by HPLC analysis
# T1 sequence (P15538 whole entry): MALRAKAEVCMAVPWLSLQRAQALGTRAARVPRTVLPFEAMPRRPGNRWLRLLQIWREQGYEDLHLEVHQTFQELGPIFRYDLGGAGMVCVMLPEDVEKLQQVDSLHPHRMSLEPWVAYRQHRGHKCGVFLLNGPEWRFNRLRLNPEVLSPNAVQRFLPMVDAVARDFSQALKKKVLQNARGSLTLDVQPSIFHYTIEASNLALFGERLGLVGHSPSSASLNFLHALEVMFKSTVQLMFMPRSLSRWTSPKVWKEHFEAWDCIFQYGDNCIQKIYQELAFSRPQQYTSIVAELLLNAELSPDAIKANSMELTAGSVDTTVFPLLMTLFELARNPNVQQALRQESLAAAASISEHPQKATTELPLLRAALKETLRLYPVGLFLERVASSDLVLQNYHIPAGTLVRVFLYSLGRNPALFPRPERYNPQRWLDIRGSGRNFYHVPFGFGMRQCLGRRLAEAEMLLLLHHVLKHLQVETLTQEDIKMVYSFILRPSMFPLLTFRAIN
# [2] = Retention time of the compound by HPLC analysis; format: physicochemical
# [3] = target: T2, Cytochrome P450 11B2, mitochondrial (Homo sapiens, UniProt P19099); test: Inhibition of human CYP11B2 expressed in hamster fibroblast using 100 nM [3H]-11-deoxycorticosterone as substrate after 45 mins by HPLC analysis
# T2 sequence (P19099 whole entry): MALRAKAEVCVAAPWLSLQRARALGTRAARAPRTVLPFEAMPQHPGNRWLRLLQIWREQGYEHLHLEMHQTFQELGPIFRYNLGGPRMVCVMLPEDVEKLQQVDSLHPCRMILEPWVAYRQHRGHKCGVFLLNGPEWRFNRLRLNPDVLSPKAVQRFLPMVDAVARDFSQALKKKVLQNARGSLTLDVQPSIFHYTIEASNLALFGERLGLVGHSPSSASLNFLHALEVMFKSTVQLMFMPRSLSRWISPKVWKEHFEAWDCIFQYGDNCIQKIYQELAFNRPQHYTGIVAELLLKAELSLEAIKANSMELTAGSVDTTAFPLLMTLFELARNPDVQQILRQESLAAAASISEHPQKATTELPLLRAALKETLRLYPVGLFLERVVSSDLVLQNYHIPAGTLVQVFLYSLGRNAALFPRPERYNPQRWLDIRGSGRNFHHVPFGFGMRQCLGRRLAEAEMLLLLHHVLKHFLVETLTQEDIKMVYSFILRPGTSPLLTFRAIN
# Homo sapiens = species: Homo sapiens; test: Selectivity index, ratio of IC50 for human CYP11B2 to IC50 for human CYP11B1
# Aromatase = target: T3, Aromatase (Homo sapiens, UniProt P11511); test: Inhibition of human CYP19 expressed in hamster fibroblast using 500 nM [1beta-3H] androstenedione as substrate by HPLC analysis
# T3 sequence (P11511 whole entry): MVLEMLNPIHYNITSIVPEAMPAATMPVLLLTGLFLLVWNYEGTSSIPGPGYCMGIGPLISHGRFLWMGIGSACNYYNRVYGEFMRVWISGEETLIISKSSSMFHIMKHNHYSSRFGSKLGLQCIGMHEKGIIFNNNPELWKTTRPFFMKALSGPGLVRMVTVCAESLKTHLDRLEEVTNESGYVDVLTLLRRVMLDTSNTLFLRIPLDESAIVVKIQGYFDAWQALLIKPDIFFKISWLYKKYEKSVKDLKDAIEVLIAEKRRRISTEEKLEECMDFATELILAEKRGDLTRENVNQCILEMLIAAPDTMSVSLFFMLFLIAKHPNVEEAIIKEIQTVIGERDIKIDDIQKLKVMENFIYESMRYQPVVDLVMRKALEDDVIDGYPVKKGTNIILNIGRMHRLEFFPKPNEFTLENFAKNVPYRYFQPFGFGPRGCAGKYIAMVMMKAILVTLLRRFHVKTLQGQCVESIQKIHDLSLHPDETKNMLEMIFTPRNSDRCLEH
# [4] = target: T4, Cytochrome P450 11B1, mitochondrial (Rattus norvegicus, UniProt P15393); test: Inhibition of rat CYP11B1 expressed in hamster fibroblast using 500 nM [3H]-11-deoxycorticosterone as substrate after 7 hrs by HPLC analysis
# T4 sequence (P15393 whole entry): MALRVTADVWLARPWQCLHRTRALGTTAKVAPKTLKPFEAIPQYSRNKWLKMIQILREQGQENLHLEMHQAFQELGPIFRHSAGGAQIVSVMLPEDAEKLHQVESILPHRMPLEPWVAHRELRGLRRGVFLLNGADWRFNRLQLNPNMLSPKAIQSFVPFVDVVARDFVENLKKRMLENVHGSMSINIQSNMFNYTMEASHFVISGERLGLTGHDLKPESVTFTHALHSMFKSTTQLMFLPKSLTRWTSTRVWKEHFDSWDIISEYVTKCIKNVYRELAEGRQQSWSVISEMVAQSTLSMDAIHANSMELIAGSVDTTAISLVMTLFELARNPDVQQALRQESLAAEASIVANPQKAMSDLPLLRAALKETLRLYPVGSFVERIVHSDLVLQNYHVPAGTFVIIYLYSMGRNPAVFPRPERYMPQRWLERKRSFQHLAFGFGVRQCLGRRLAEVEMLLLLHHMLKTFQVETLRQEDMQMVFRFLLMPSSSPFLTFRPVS
IC50 [1] [nM],Retention_time [2] [min],IC50 [3] [nM],Selectivity Index (Homo sapiens),IC50 (Aromatase) [nM],IC50 [4] [nM],Structure (SMILES)
51,9.57,84,1.6,,,Fc1ccc(-c2cccnc2)c(OCCc2ccccc2)c1
1210,8.67,756,0.6,,,O=C(Nc1ccc(-c2cccnc2)c(OCc2ccccc2)c1)c1ccc(F)cc1
46,9.2,70,1.5,,,COc1ccc(-c2ccncc2)c(OCCc2ccccc2)c1
,,,15.1,> 5000,,Cc1cncc(Cc2ccc(-c3ccccc3)nc2)c1
12,8.71,23,1.9,1550,441,N#Cc1ccc(-c2ccncc2)c(OCCc2ccccc2)c1
183,9.07,230,1.3,,,COc1ccc(-c2cccnc2)c(OCCc2ccccc2)c1
279,7.25,643,2.3,,,CC(=O)Nc1ccc(-c2cccnc2)c(OCc2ccccc2)c1
26,10.13,24,0.9,2090,,FC(F)(F)c1ccc(-c2ccncc2)c(OCCc2ccccc2)c1
182,9.7,246,1.3,128,706,O=[N+]([O-])c1ccc(Cc2cccnc2)c(OCCc2ccccc2)c1
13,9.13,53,4.1,75,1310,O=[N+]([O-])c1ccc(-c2cccnc2)c(OCCc2ccccc2)c1
2490,,,0.1,,,COc1cc2c(cc1-c1cccnc1)CCC(=O)N2
,,,13.3,> 5000,> 10000,c1ccc(-c2ccc(Cn3ccnc3)cn2)cc1
1150,7.51,816,0.7,,,CN(C)C(=O)c1ccc(-c2ccncc2)c(OCCc2ccccc2)c1
540,5.63,260,0.5,447,,Nc1ccc(-c2cccnc2)c(OCc2ccccc2)c1
6,9.55,16,2.7,157,2850,O=[N+]([O-])c1ccc(Cc2ccncc2)c(OCCc2ccccc2)c1
50,9.02,87,1.7,2420,648,O=[N+]([O-])c1ccc(-c2ccncc2)c(OCc2ccccc2)c1
,,,,> 5000,4610,CC(C)(C(=O)c1cccnc1)c1cccnc1 [METYRAPONE]
,,,0.5,,1500,O=C1CCc2cc(-c3cccnc3)c(OCc3ccccc3)cc2N1
1660,7.73,1450,0.9,,,c1ccc(CCOc2cccnc2-c2cccnc2)cc1
508,9.8,447,0.9,,,O=[N+]([O-])c1ccc(-c2cccnc2)cc1OCCc1ccccc1
38,8.85,63,1.6,165,543,N#Cc1ccc(-c2cccnc2)c(OCCc2ccccc2)c1
60,9.32,74,1.2,,,Fc1ccc(-c2ccncc2)c(OCCc2ccccc2)c1
812,10.3,945,1.2,,,FC(F)(F)c1ccc(-c2cccnc2)c(OCCc2ccccc2)c1
2,9.21,7,3.5,1890,163,O=[N+]([O-])c1ccc(-c2ccncc2)c(OCCc2ccccc2)c1
23,9.07,17,0.7,146,1490,O=[N+]([O-])c1ccc(-c2cccnc2)c(OCc2ccccc2)c1
1200,9.57,714,0.6,,,O=[N+]([O-])c1ccc(-c2ccncc2)cc1OCCc1ccccc1
594,7.56,299,0.5,,,CN(C)C(=O)c1ccc(-c2cccnc2)c(OCCc2ccccc2)c1
6,9.28,15,2.5,137,2080,O=[N+]([O-])c1ccc(-c2cccnc2)c(OCCCc2ccccc2)c1
8,9.33,18,2.4,4990,370,O=[N+]([O-])c1ccc(-c2ccncc2)c(OCCCc2ccccc2)c1
2670,7.91,2440,0.9,,,c1ccc(CCOc2cccnc2-c2ccncc2)cc1
